From PMC4473678, “Swedish mutant APP-based BACE1 binding site peptide reduces APP β-cleavage and cerebral Aβ levels in Alzheimer’s mice” (Scientific Reports, 2015)
“Also recorded” adds a separate entry of the source.

Key:
recombinant BACE1 = experiment: BACE1 activity (FRET) assay, cell-free; assay type: biochemical
Description: The BACE1 inhibiting activity of APP-based BACE1 site binding peptides were determined using a fluorescence resonance energy transfer (FRET) assay (Pan Vera Co., Madison, WI), which employs a recombinant baculovirus-expressed BACE1 and a specific substrate (Rh-[…]-quencher) that is based on the APPswe mutation. This specific peptide substrate becomes highly fluorescent upon enzymatic cleavage. […] Then, 10 μL of BACE1 stop buffer (2.5 M sodium acetate) was added to the mixture. Fluorescence was read using a fluorometer, with excitation at 545 nm and emission at 585 nm.

[1] = tested on: recombinant BACE1 protein; experiment: Immunoprecipitation/WB of peptide-BACE1 binding, cell-free; details: 10 μg biotin-labeled peptide with 10 μL recombinant BACE1 (1.0 U/mL), 4 h, 37 °C; anti-BACE1 IP/anti-biotin WB and reverse; listed as TAT-APPsweBBP
Description: In order to confirm that APPsweBBP containing the β-cleavage site could bind to and be consequently proteolyzed by BACE1, 10 μg of biotin-labeled TAT-APPsweBBP was incubated with or without 10 μL of recombinant BACE1 protein (1.0 U/mL) in BACE1 reaction buffer for 4 h at 37 °C and then subjected to WB analysis as described previously. In addition, we performed immunoprecipitation (IP) and WB analyses of this mixture with anti-BACE1 and anti-biotin antibodies to confirm that TAT-APPsweBBP, but not TAT, specifically binds to BACE1.

BACE1 in CHO/APPwt cells = experiment: Co-localization with BACE1 in CHO/APPwt cells (immunocytochemistry); assay type: cell-based, Chinese hamster; details: biotin-labeled peptide 20 μM, 30 min, anti-BACE1 and anti-biotin staining
Description: Following application of blocking buffer, these cells were stained with mouse anti-BACE1 and anti-biotin antibodies overnight at 4 °C for immunocytochemical analysis. In order to determine the inhibitory effects of TAT-APPsweBBP on BACE1-mediated APP β-cleavage and subsequent Aβ production, both CHO/APPwt and CHO/APPswe cells were plated in 24 well-plates (3×10^5/well) and treated with TAT-APPsweBBP at 0 to 20 μM for 24 h. The cultured media were collected for Aβ and sAPPα analysis by ELISA and WB. Cell lysates were also prepared for analysis of APP amyloidogenic processing by WB.

5XFAD mice [2] = experiment: Radial arm water maze (RAWM), 5XFAD mice; assay type: in vivo, mouse; details: 100 nmol/kg i.p. daily, 8 weeks, n = 10 per treatment, 5 female/5 male, listed as TAT-APPsweBBP
Description: (§1) Transgenic AD mice [5XFAD; B6SJL-Tg(APPSwFlLon,PSEN1*M146L*L286V) 6799Vas/Mmjax] at 2.5 months of age were obtained from the Jackson Laboratory (Bar Harbor, ME) and housed and maintained in the Animal Facility of College of Medicine at University of South Florida (USF). The mice at 3.5 months of age were treated with TAT-APPsweBBP, TAT peptide (100 nmol/kg in 100 μL PBS) or PBS (100 μL) daily by intraperitioneal injection (i.p.) for eight consecutive weeks. The mice were subjected to behavioral testing after 8-week treatment and then euthanized for immunohistochemical, WB and ELISA analyses. Animals were housed and maintained at USF and all experiments were in compliance with protocols approved by USF Institutional Animal Care and Use Committee. All methods were performed in accordance with relevant guidelines and regulations.
Spatial learning and memory performance was tested for each mouse using the Two-day Radial Arm Water Maze (RAWM) test[49]. The RAWM was carried out in a 100-cm circular pool with six swim alleys radiating from a common circular swim area. An escape platform was placed near the end of one arm, which forces mice to use working memory to perform this task. On day 1, mice are trained for 15 trials (5 blocks, 3 trials per block), with trials alternating between visible and hidden platform. […] Cognitive ability was assessed as the number of entry-arm errors.

WT mice [3] = experiment: Radial arm water maze (RAWM), WT mice; assay type: in vivo, mouse; details: 100 nmol/kg i.p. daily, 8 weeks, n = 10 per treatment, listed as TAT-APPsweBBP
WT mice [4] = experiment: Rotarod test, WT mice; assay type: in vivo, mouse; details: 100 nmol/kg i.p. daily, 8 weeks, n = 10 per treatment
5XFAD mice [5] = experiment: Cerebral Aβ ELISA, 5XFAD mice; assay type: in vivo, mouse; details: 100 nmol/kg i.p. daily, 8 weeks, versus TAT or PBS, *P < 0.05, **P < 0.01, ***P < 0.005, listed as TAT-APPsweBBP
Description: as §1, with “All methods were performed in accordance with relevant guidelines and regulations.” left out
Mouse brains were homogenized in ice-cold lysis buffer for 30 s using a Minilys tissue homogenizer (Bertin Technologies, Montigny-le-Bretonneux, France) set at high speed, allowed to stand for 15 min at 4 °C, and centrifuged at 15000 rpm for 30 min. Soluble Aβ1−40/42 species and sAPPα were directly detected in cultured cell media or brain homogenates using the Aβ1−40/42 (Invitrogen) and sAPPα ELISA kits (IBL-America, Minneapolis, MN). Detergent-insoluble total […] species were detected in brain by extracting pellets in 5 M guanidine HCl buffer, followed by a 1:20 dilution in lysis buffer.

YGRKKRRQRRREISEVNLDAEFR [APPsweBBP conjugated with the membrane fusion fragment of HIV-1 Tat protein]
BACE1 inhibition (result in words) (recombinant BACE1; FRET assay, APPsweBBP or TAT-APPsweBBP at 0.05, 0.5, 5 and 20 μM (Fig. 1)): competitively inhibits BACE1 activity; also recorded: much higher inhibiting activity than its prototype peptide | inhibition (recombinant BACE1; FRET assay, peptide final concentration 20 μM, 90 min, room temperature, read-out: percentage inhibition of BACE1): 93.2 ± 2.73% | % of Inhibition of BACE1 (recombinant BACE1; peptide final concentration 20 μM, FRET substrate Rh-EVNLDAEFK-quencher, 90 min, room temperature, dark, ex 545/em 585 nm, mean ± SD): 93.23 ± 2.73% | binding to BACE1 (co-immunoprecipitation) [1]: binds to BACE1 protein; also recorded: strongly binds to | co-localization with BACE1 (BACE1 in CHO/APPwt cells; listed as TAT-APPsweBBP): much more strongly co-localized with BACE1 protein compared to APPsweBBP | co-localization with BACE1 (BACE1 in CHO/APPwt cells; listed as TAT-APPsweBPP): strong association with BACE1 in both cytoplasmic membrane and intracellular compartments | RAWM entry-arm errors (learning and memory) (5XFAD mice [2]): significantly fewer errors, compared to TAT- and PBS-treated mice; also recorded: enhanced cognitive ability, as evidenced by fewer errors | RAWM entry-arm errors (WT mice [3]): no difference among the various treatment groups; also recorded: no significant difference between WT treatment groups | rotarod latency to fall (WT mice [4]): no differences between treatment groups on each day | detergent-insoluble Aβ1−40/42 in brain (5XFAD mice [5]): statistically significant decreases; also recorded: significantly reduced | detergent-soluble Aβ1−40/42 in brain (5XFAD mice [5]): statistically significant decreases; also recorded: significantly reduced
